Measured values reported in patent US7520897B2, “Medical devices having antimicrobial properties” (Helix Medical, LLC, priority 2001, dated 2009).

What was measured:
[1] = Cytotoxicity (MEM Elution) of organic antimicrobial valve material; assay type: cell-based
[2] = Acute Oral Toxicity (7 day observation in the mouse); assay type: in vivo

Row | Compound | Cytotoxicity (MEM Elution) on the device with valve material [1] | Acute Oral Toxicity (7 day observation in the mouse) [2] | Cytotoxicity (MEM Elution) on the valve material alone ([1]; valve material alone)
1 | CCCCOC(=O)c1ccc(O)cc1 [Butyl Paraben, butyl p-hydroxy Benzoate] | Nontoxic | Nontoxic | 
2 | Oc1cc(Cl)ccc1Oc1ccc(Cl)cc1Cl [Triclosan, 2,4,4′-trichloro-2′-hydroxydiphenyl ether] | Nontoxic | Nontoxic | Toxic
